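In this assay, cells in 96-well plates receive the compound at five concentrations for 48 hours. Endpoints are linearly interpolated between the surrounding concentrations. GI50: concentration for 50% inhibition of growth.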 Activity calls are given as the source filed them. Cut-off read from the data, not from the text of the source: active = GI50 up to about 1.1 µM and inactive = higher.
Assays:
Test in all cases: inhibition of tumour cell growth, NCI panel, 48 h
[1] = tested on: MDA-MB-231
[2] = tested on: DU-145
[3] = tested on: MOLT-4
[4] = tested on: NCI/ADR-RES
[5] = tested on: RPMI-8226
[6] = tested on: SN12C
[7] = tested on: HT-29
[8] = tested on: OVCAR-8
[9] = tested on: Hs-578T
[10] = tested on: SF-268
[11] = tested on: LOX IMVI
[12] = tested on: HCT-116
[13] = tested on: SW-620
[14] = tested on: HCT-15
[15] = tested on: UACC-257
[16] = tested on: CAKI-1
[17] = tested on: 786-0
[18] = tested on: KM12
[19] = tested on: OVCAR-5
[20] = tested on: NCI-H460

| SMILES | GI50 [1] | GI50 [2] | GI50 [3] | GI50 [4] | GI50 [5] | GI50 [6] | GI50 [7] | GI50 [8] | GI50 [9] | GI50 [10] | GI50 [11] | GI50 [12] | GI50 [13] | GI50 [14] [µM] | GI50 [15] | GI50 [16] | GI50 [17] | GI50 [18] | GI50 [19] | GI50 [20] |
| --- | --- | --- | --- | --- | --- | --- | --- | --- | --- | --- | --- | --- | --- | --- | --- | --- | --- | --- | --- | --- |
| Nc1ccc(-c2nc3ccccc3s2)cc1C(F)(F)F | 13.2 µM (inactive) | 15.8 µM (inactive) | 19.9 µM (inactive) | 17.7 µM (inactive) | 16.5 µM (inactive) | 13.6 µM (inactive) | 15.5 µM (inactive) | 18.6 µM (inactive) | 20 µM (inactive) | 16 µM (inactive) | 16.4 µM (inactive) | 13.4 µM (inactive) | 16.4 µM (inactive) | 13.4 | 15.6 µM (inactive) | 15.2 µM (inactive) | 13.5 µM (inactive) | 16.1 µM (inactive) | – | – |
| O=C(c1ccc(Cl)cc1)N(C(=S)OCc1ccccn1)c1ccccc1 | > 100 µM (inactive) | 58.6 µM (inactive) | 41.6 µM (inactive) | 39 µM (inactive) | 40.6 µM (inactive) | 51.6 µM (inactive) | 55 µM (inactive) | > 100 µM (inactive) | > 100 µM (inactive) | > 100 µM (inactive) | 68.2 µM (inactive) | 46.6 µM (inactive) | 66.7 µM (inactive) | 40.4 | 82.6 µM (inactive) | 71.8 µM (inactive) | 83.2 µM (inactive) | > 100 µM (inactive) | 73.6 µM (inactive) | – |
| CC1(C)N=c2c(ncn2CCO)=C(C(N)=O)N1 | > 100 µM (inactive) | > 100 µM (inactive) | – | > 100 µM (inactive) | > 100 µM (inactive) | > 100 µM (inactive) | > 100 µM (inactive) | > 100 µM (inactive) | > 100 µM (inactive) | > 100 µM (inactive) | > 100 µM (inactive) | > 100 µM (inactive) | > 100 µM (inactive) | > 100 | > 100 µM (inactive) | > 100 µM (inactive) | > 100 µM (inactive) | > 100 µM (inactive) | > 100 µM (inactive) | > 100 µM (inactive) |
| CCCC[S+]([O-])CCC(N)C(=O)O (configuration not stated) | > 100 µM (inactive) | > 100 µM (inactive) | > 100 µM (inactive) | > 100 µM (inactive) | – | > 100 µM (inactive) | > 100 µM (inactive) | > 100 µM (inactive) | > 100 µM (inactive) | > 100 µM (inactive) | – | > 100 µM (inactive) | > 100 µM (inactive) | > 100 | > 100 µM (inactive) | > 100 µM (inactive) | > 100 µM (inactive) | > 100 µM (inactive) | > 100 µM (inactive) | > 100 µM (inactive) |
| COc1ccccc1/C=C1/Sc2scc(CC(=O)Nc3ccccc3)[n+]2C1=O | 23 µM (inactive) | 27.7 µM (inactive) | 17.2 µM (inactive) | 19.8 µM (inactive) | – | 31.3 µM (inactive) | 42 µM (inactive) | 31.8 µM (inactive) | 40.6 µM (inactive) | 47.6 µM (inactive) | 39 µM (inactive) | 24.6 µM (inactive) | 35 µM (inactive) | 26.6 | 25.1 µM (inactive) | 53 µM (inactive) | 28.6 µM (inactive) | 19.7 µM (inactive) | 47 µM (inactive) | 29.5 µM (inactive) |
| O=c1o[nH]/c(=N/c2ccccc2)n1-c1ccccc1 | > 100 µM (inactive) | – | > 100 µM (inactive) | > 100 µM (inactive) | – | > 100 µM (inactive) | > 100 µM (inactive) | > 100 µM (inactive) | > 100 µM (inactive) | – | > 100 µM (inactive) | > 100 µM (inactive) | > 100 µM (inactive) | > 100 | > 100 µM (inactive) | > 100 µM (inactive) | > 100 µM (inactive) | > 100 µM (inactive) | > 100 µM (inactive) | > 100 µM (inactive) |
| C1COC(NC(C2CC2)C2CC2)=N1 [RILMENIDINE] | > 100 µM (inactive) | > 100 µM (inactive) | > 100 µM (inactive) | > 100 µM (inactive) | > 100 µM (inactive) | – | > 100 µM (inactive) | > 100 µM (inactive) | > 100 µM (inactive) | – | > 100 µM (inactive) | > 100 µM (inactive) | > 100 µM (inactive) | > 100 | > 100 µM (inactive) | > 100 µM (inactive) | > 100 µM (inactive) | > 100 µM (inactive) | > 100 µM (inactive) | > 100 µM (inactive) |
| O=C1CSC(c2ccccc2O)N1c1ccc2c(c1)Oc1c(Cl)c3c(c(Cl)c1=N2)Oc1cc(N2C(=O)CSC2c2ccccc2O)ccc1N=3 (configuration not stated) | 28.9 µM (inactive) | 42.4 µM (inactive) | 2.55 µM (inactive) | > 100 µM (inactive) | 23.7 µM (inactive) | – | 54.7 µM (inactive) | 29.4 µM (inactive) | 30.3 µM (inactive) | 32.7 µM (inactive) | 42.1 µM (inactive) | 30.6 µM (inactive) | 27.4 µM (inactive) | > 100 | 81.1 µM (inactive) | > 100 µM (inactive) | 40.1 µM (inactive) | 34.3 µM (inactive) | > 100 µM (inactive) | 43 µM (inactive) |
